Here are results for 26 molecules from publication PMC8545574, “Antioxidant, Anti-Inflammatory, and Antidiabetic Activities of Bioactive Compounds from the Fruits of Livistona chinensis Based on Network Pharmacology Prediction” (Oxidative Medicine and Cellular Longevity, 2021).

Converted amounts (≈) assume the structure as drawn. “And” between values parts separate entries of the source, which are not always exact repeats. Equal entries are not always repeated. Where two headings read alike, the source gives them in different places.

A short description of assay [1]: ABTS radical cation scavenging assay. Format: biochemical. The settings on record: mean ± SD, n = 3. The procedure:
The ABTS radical cation (ABTS·+) was prepared by reacting ABTS with potassium persulfate following the method previously described. The ABTS radical cation (ABTS·+) was prepared by mixing with 2.45 mM potassium persulfate and equal volumes of an ABTS solution (7 mM), and then, they were permitted to react in the darkness at room temperature for 12–16 h. Thereafter, the ABTS reagent was diluted with methyl alcohol until reaching an absorbance of 0.70 ± 0.02 units at 734 nm. In a 96-well microplate, ABTS reagent (190 μL in each well) and samples (10 μL in each well) were incubated at room temperature for 20 min. To determine the antioxidant capacity by the ABTS method, the experimental conditions and protocol were identical to those of the DPPH assay. The only difference was that the absorbance was measured at 734 nm.

Assay [2] relates to LPS-stimulated NO release in RAW 264.7 cells. Description: Nitrite (Griess) assay of LPS-stimulated NO release. Format: cell-based. The procedure: The level of NO production was tested by measuring the nitrite level in the culture medium with the Griess method. Cells were seeded at a density of 2 × 10^4 cells per well in 96-well plates. […] A microplate reader was employed for the optical density measurement at 570 nm.

Assay [3] can be described thus: DPPH free radical scavenging assay. Format: biochemical. Particulars: mean ± SD, n = 3. On the procedure:
The DPPH free radical scavenging assay was performed according to a previously reported method. A series of different concentrations of the tested samples and the positive control ascorbic acid were mixed with freshly prepared DPPH (0.2 mM) in a 96-well microplate with a total volume of 150 μL. After leaving the mixture to react in the dark for 30 min, its absorbance was determined at 517 nm. All of the wells with only samples were set as blanks to obtain an absorbance value, which was subtracted from the test sample readings. The percentage inhibition (%) for each sample was calculated by the following formula: (1) Inhibition %=Absblank−Abssamples/Absblank×100%, where Absblank and Abssamples correspond to the absorbance units (at 517 nm) of DPPH solutions incubated in the absence and presence of the tested samples.
On the technique in general: DPPH is a stable violet radical that fades when it is reduced.

In assay [4] the target is α-Glucosidase (from Baker's yeast). The assay can be described thus: α-Glucosidase inhibitory assay (p-NPG substrate). Particulars: read-out: IC50 α-Glucosidase inhibitory effect; mean ± SD, n = 3.
Description: The extract, fractions, and compounds were dissolved in 5% DMSO and then diluted with phosphate buffer. Briefly, 80 μL PBS, 20 μL of varying concentrations of sample solutions, and 20 μL α-glucosidase solution (1.3 U/mL) were mixed and incubated in 96-well plates at 37°C for 5 min. The reaction started when 20 μL p-nitrophenyl-α-D-glucopyranoside (2.5 mM) was added to the plate. The reaction mixture was incubated for 15 min at 37°C, and then, 80 μL Na2CO3 (0.2 M) was added to stop the reaction.
Another assay deals with T1, PTP1B (Homo sapiens, UniProt P18031).
T1 sequence (P18031 1-321 limits assumed): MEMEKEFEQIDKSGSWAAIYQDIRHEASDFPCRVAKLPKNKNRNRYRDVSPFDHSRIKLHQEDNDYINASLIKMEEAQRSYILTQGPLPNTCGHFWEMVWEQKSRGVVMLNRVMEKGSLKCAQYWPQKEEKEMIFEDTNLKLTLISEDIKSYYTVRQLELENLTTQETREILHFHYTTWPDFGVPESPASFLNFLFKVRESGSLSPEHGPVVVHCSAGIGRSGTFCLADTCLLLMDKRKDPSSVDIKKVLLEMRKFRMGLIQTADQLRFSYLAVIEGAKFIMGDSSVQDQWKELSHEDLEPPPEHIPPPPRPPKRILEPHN
The assay can be described thus: PTP1B inhibitory assay (p-NPP substrate).

[5] abbreviates: Mus musculus, RAW264.7, LPS (1 μg/mL)-stimulated RAW 264.7 cells, mean ± SD, n = 3, read-out: IC50 NO production anti-inflammatory effect.

Description for PTP1B: PTP1B (10 μg/mL stock solution) was dissolved in 10 mM citrate buffer (pH 6.0), 1 mM dithiothreitol (DTT), and 1 mM N, N, N′, N′-ethylenediaminetetraacetate (EDTA). 20.0 μL PTP1B stock solution and 60 μL citrate buffer were added to each well of a 96-well plastic plate.

As to (+)-pinoresinol [Compound 29], the IC50 – broadly, the concentration at which inhibition is half-maximal – in assay [1] was determined as 18.49 ± 0.09 µM; in assay [2] (LPS (1 μg/mL)-stimulated RAW 264.7 cells, mean ± SD, n = 3, read-out: IC50 NO production anti-inflammatory effect), 69.94 ± 0.31 µM; in assay [3] it was 77.4 ± 2.98 µM; in assay [4] it was 52.1 ± 0.93 µM.

For `O=C(O)c1ccc(O)c(O)c1` [Compound 38, protocatechuic acid], the IC50 is 63.25 ± 0.51 µM in assay [1], 33.1 ± 0.79 µM in assay [3] and 44.75 ± 0.12 µM at PTP1B.

On to `COc1cc(C2Oc3c(OC)cc(CCCO)cc3C2CO)cc(OC)c1O` [Compound 14, (7S,8R)-5-methoxydihydrodehydroconiferyl alcohol], for which the IC50 is 45.13 ± 0.41 µM in assay [1]; 70 ± 5.33 µM in assay [2] (setting [5]); 60.3 ± 0.16 µM in assay [3]; 62.2 ± 1.03 µM in assay [4]; over 100 µM on PTP1B.

For `COc1cc(C2Oc3c(OC)cc(CCCO)cc3C2CO)ccc1OC(CO)CO` [Compound 15, (7S,8R)-9,9′-dihydroxyl-3,3′-dimethoxyl-4-O-glycerol-7,8-dihydrobenzofuran-1′-propanolneoligan], the IC50 in assay [1] is over 100 µM; in assay [2] (setting [5]), 13.2 ± 0.36 µM; in assay [3] it was over 100 µM; in assay [4], over 100 µM; on PTP1B it was over 100 µM.

For `C[C@@H]1O[C@@H](O[C@H]2C(=O)c3c(O)cc(O)cc3O[C@@H]2c2ccc(O)c(O)c2)[C@H](O)[C@H](O)[C@H]1O` [Compound 12, astilbin], the IC50 in assay [1] is 43.1 ± 0.29 µM; in assay [3], 46.46 ± 0.4 µM; in assay [4] it was over 100 µM; against PTP1B, over 100 µM.

For the molecule `COc1cc([C@@H]2OC[C@H]3C(=O)OC[C@H]32)ccc1O` [Compound 27, salicifoliol], the IC50 in assay [1] is 41.98 ± 0.33 µM; in assay [2] (setting [5]), 66.86 ± 0.51 µM; in assay [3] it was over 100 µM; in assay [4], over 100 µM.

In the case of `Oc1cc(O)c2c(c1)O[C@H](c1ccc(O)c(O)c1)[C@H](O)C2` [Compound 4, (-)-epicatechin], the IC50 in assay [1] was determined as 13.46 ± 0.09 µM; in assay [3] it was 32 ± 0.37 µM; in assay [4], 24 ± 0.38 µM; against PTP1B, 38.66 ± 0.21 µM.

`COc1cc(-c2oc3cc(O)cc(O)c3c(=O)c2O[C@@H]2O[C@H](CO)[C@@H](O)[C@H](O)[C@H]2O)ccc1O` [Compound 11, isorhamnetin-3-O-β-D-glucoside]: the results for the IC50 in assay [1], in assay [3] and in assay [4] were 36.71 ± 0.33 µM, 21.8 ± 0.26 µM and over 100 µM, respectively.

With `COc1cc([C@H](O)[C@H](CO)Oc2ccc(CCCO[C@@H]3O[C@H](CO)[C@@H](O)[C@H](O)[C@H]3O)cc2OC)ccc1O` [Compound 23, threo-(7R,8R)-4,7,9,9′-tetrahydroxy-3,3′-dimethoxy-8-O-4′-neolignan-9′-O-β-D-glucopyranoside], the IC50 in assay [1] was 68.2 ± 0.76 µM; in assay [2] (setting [5]), 73.16 ± 0.34 µM; in assay [3], over 100 µM; in assay [4], 82.12 ± 0.56 µM; at PTP1B, 90.06 ± 0.47 µM.

On to `COc1cc(-c2cc(=O)c3c(O)cc(O[C@@H]4O[C@H](CO)[C@@H](O)[C@H](O)[C@H]4O)cc3o2)cc(OC)c1O` [Compound 10, tricin-7-O-β-D-glucoside], for which the IC50 in assay [1] was 91.1 ± 1.1 µM; in assay [2] (Mus musculus, RAW264.7, read-out: IC50 NO production anti-inflammatory effect), 65.8 ± 1.47 µM; in assay [3] it was over 100 µM; in assay [4], over 100 µM.

As to `COc1cc([C@@H]2OC(=O)[C@@H]3[C@H]2CO[C@H]3c2ccc(O)c(OC)c2)ccc1O` [Compound 28, 4-ketopinoresinol], the IC50 in assay [1] was 20.4 ± 0.23 µM; in assay [2] (setting [5]), 14.8 ± 1.2 µM; in assay [3], over 100 µM; in assay [4] it was over 100 µM.

On to `COc1cc([C@@H](O)[C@H](CO)Oc2c(OC)cc([C@@H]3OC[C@@H]4[C@H]3CO[C@H]4c3cc(OC)c(O)c(OC)c3)cc2OC)ccc1O` [Compound 35, (7R,7′R,7^″R,8S,8′S,8^″S)-4′,4^″-dihydroxy-3,3′,3^″,5,5′-pentamethoxy-7,9′:7′,9-diepoxy-4,8^″-oxy-8,8′-sesquineolignan-7^″,9^″-diol], for which the IC50 in assay [1] stood at 31.18 ± 0.24 µM; in assay [2] (setting [5]), 26.2 ± 0.19 µM; in assay [3], 65.9 ± 1.52 µM; in assay [4] it was 19.7 ± 0.21 µM; against PTP1B it was 63.16 ± 0.3 µM.

With `O=C1O[C@H]([C@@H](O)CO)C(O)=C1O` [Ascorbic acid, reference compound], the “IC50 ABTS scavenging activity” value in assay [1] (extract and fractions) came out at 8.96 ± 0.22 µg/mL (≈ 50.9 µM). The IC50 in assay [1] was found to be 50.9 ± 1.25 µM; in assay [3], 35.1 ± 1.02 µM. Besides, the “IC50 DPPH scavenging activity” value in assay [3] (extract and fractions) came out at 6.18 ± 0.18 µg/mL (≈ 35.1 µM).

Consider `COc1cc([C@@H](O)[C@H](CO)Oc2ccc(CCCO[C@@H]3O[C@H](CO)[C@@H](O)[C@H](O)[C@H]3O)cc2OC)ccc1O` [Compound 22, erythro-(7R,8S)-4,7,9,9′-tetrahydroxy-3,3′-dimethoxy-8-O-4′-neolignan-9′-O-β-D-glucopyranoside], for which the IC50 in assay [1] was 26.97 ± 0.21 µM; in assay [2] (setting [5]), 83.16 ± 0.24 µM; in assay [3] it was over 100 µM; in assay [4] it was 73.1 ± 2.33 µM; against PTP1B it was 92.39 ± 0.71 µM.

As for `O=c1cc(-c2ccc(O)cc2)oc2c([C@@H]3O[C@H](CO)[C@@H](O)[C@H](O)[C@H]3O)c(O)cc(O)c12` [Compound 9, vitexin], the IC50 in assay [1] came out at 85.04 ± 0.24 µM; in assay [3], 92.26 ± 0.32 µM; in assay [4], 98.6 ± 1.2 µM; against PTP1B, 30.6 ± 0.48 µM.

Take `COc1cc(CCCO)cc(OC)c1OC(CO)CO` [Compound 26, 2-[4-(3-hydroxy-propyl)-2,6-dimethoxyphenoxy]-propane-1,3-diol]: the IC50 was over 100 µM in assay [1], over 100 µM in assay [3] and 56.52 ± 0.45 µM in assay [4].

For `COc1cc([C@@H](O)[C@H](CO)Oc2c(OC)cc(CCCO)cc2OC)ccc1O[C@@H]1O[C@H](CO)[C@@H](O)[C@H](O)[C@H]1O` [Compound 24, erythro-(7R,8S)-7,9,9-trihydroxy-3,3,5-trimethoxy-8-O-4-neolignan-4-O-β-D-glucopyranoside], the IC50 (in assay [1]; in assay [3]; at PTP1B) was over 100 µM in each case.

With `COc1cc([C@H]2OC[C@H]3[C@@H]2CO[C@@H]3c2cc(OC)c(O)c(OC)c2)cc(OC)c1O` [Compound 31, (+)-syringaresinol], the IC50 in assay [1] is 23.7 ± 0.25 µM; in assay [2] (setting [5]) it was 48.98 ± 0.39 µM; in assay [3] it was 65.4 ± 1.48 µM; in assay [4], 49.1 ± 1.1 µM.

Take `COc1cc(-c2cc(=O)c3c(O)cc(O)cc3o2)cc(OC)c1O` [Compound 8, tricin]: the IC50 in assay [1] is 24.1 ± 0.32 µM; in assay [3], 61.25 ± 0.31 µM; in assay [4], over 100 µM; against PTP1B it was over 100 µM.

`COc1cc(C(=O)O)ccc1O` [Compound 37, vanillic acid]: the IC50 was 88.32 ± 0.12 µM in assay [1] and over 100 µM in assay [3].

As for `COC(=O)c1ccc(O)c(O)c1` [Compound 42, protocatechuic acid methyl ester], the IC50 in assay [1] turned out to be 83.21 ± 0.53 µM; in assay [3], 63.32 ± 0.41 µM; against PTP1B it was 63 ± 0.65 µM.

As for `Oc1ccc([C@H]2Oc3cc(O)cc(O)c3C[C@H]2O)cc1` [Compound 2, (-)-epiafzelechin], the IC50 is 15 ± 0.11 µM in assay [1], 43.4 ± 0.46 µM in assay [3], 62.5 ± 1.92 µM in assay [4] and 39.25 ± 0.14 µM against PTP1B.

As to `COc1ccc(C(=O)O)cc1O` [Compound 41, isovanillic acid], the figures for the IC50 (in assay [1]; in assay [3]; on PTP1B) were 76.06 ± 0.48 µM, over 100 µM and 91.1 ± 0.38 µM, respectively.

Regarding `COc1cc(O)c2c(c1)C(=O)c1cc(C)cc(O)c1C2=O` [Compound 45, physcion], the IC50 in assay [1] is over 100 µM; in assay [2] (setting [5]) it was 30 ± 0.57 µM; in assay [3] it was over 100 µM; against PTP1B, 24.75 ± 0.18 µM.

Regarding `COc1ccc2c(c1)c(CC(=O)O)c(C)n2C(=O)c1ccc(Cl)cc1` [Indomethacin, reference compound], in assay [2] (setting [5]), the IC50 is 8.01 µg/mL and 22.4 µM.

In the case of `Oc1cc(O)c2c(c1)O[C@H](c1ccc(O)c(O)c1)[C@@H](O)C2` [Compound 3, (+)-catechin], the IC50 is 11.29 ± 0.09 µM in assay [1], 26.4 ± 0.39 µM in assay [3], 89 ± 1.95 µM in assay [4] and 91.78 ± 0.68 µM against PTP1B.
